Test results as given in PubChem BioAssay (NCI).
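Briefly, cells in 96-well plates were exposed to five compound concentrations for 48 h, and endpoints were estimated by linear interpolation. GI50 is the concentration that inhibits growth by half. TGI: total growth inhibition.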

Columns and labels:
Experiment in all cases: NCI tumour cell line growth inhibition, 48 h
SF-539 CNS = tested on: SF-539 CNS
COLO 205 colon = tested on: COLO 205 colon
SK-MEL-5 melanoma = tested on: SK-MEL-5 melanoma
T-47D breast = tested on: T-47D breast
UACC-257 melanoma = tested on: UACC-257 melanoma
OVCAR-8 ovarian = tested on: OVCAR-8 ovarian
UACC-62 melanoma = tested on: UACC-62 melanoma
NCI-H460 lung = tested on: NCI-H460 lung
EKVX NSCLC = tested on: EKVX NSCLC
NCI-H23 lung = tested on: NCI-H23 lung
SK-MEL-2 melanoma = tested on: SK-MEL-2 melanoma
A498 renal = tested on: A498 renal
DU-145 prostate = tested on: DU-145 prostate
SW-620 colon = tested on: SW-620 colon
HCC-2998 colon = tested on: HCC-2998 colon
MOLT-4 leukemia = tested on: MOLT-4 leukemia
CCRF-CEM leukemia = tested on: CCRF-CEM leukemia
TK-10 renal = tested on: TK-10 renal
MDA-MB-435 = tested on: MDA-MB-435
MALME-3M melanoma = tested on: MALME-3M melanoma
NCI-H522 lung = tested on: NCI-H522 lung
MCF7 breast = tested on: MCF7 breast
U251 CNS = tested on: U251 CNS
HS 578T breast = tested on: HS 578T breast
LOX IMVI melanoma = tested on: LOX IMVI melanoma
HCT-15 colon = tested on: HCT-15 colon
K-562 leukemia = tested on: K-562 leukemia
KM12 colon = tested on: KM12 colon
786-0 renal = tested on: 786-0 renal
NCI/ADR-RES ovarian = tested on: NCI/ADR-RES ovarian
OVCAR-5 ovarian = tested on: OVCAR-5 ovarian
CAKI-1 renal = tested on: CAKI-1 renal
UO-31 renal = tested on: UO-31 renal
OVCAR-4 ovarian = tested on: OVCAR-4 ovarian
HCT-116 colon = tested on: HCT-116 colon
RPMI-8226 leukemia = tested on: RPMI-8226 leukemia
NCI-H226 lung = tested on: NCI-H226 lung
RXF 393 renal = tested on: RXF 393 renal
SF-268 CNS = tested on: SF-268 CNS
SF-295 CNS = tested on: SF-295 CNS
HOP-62 NSCLC = tested on: HOP-62 NSCLC
SNB-75 CNS = tested on: SNB-75 CNS
ACHN renal = tested on: ACHN renal
M14 melanoma = tested on: M14 melanoma
PC-3 prostate = tested on: PC-3 prostate
BT-549 breast = tested on: BT-549 breast
SK-OV-3 ovarian = tested on: SK-OV-3 ovarian
SN12C renal = tested on: SN12C renal
SK-MEL-28 melanoma = tested on: SK-MEL-28 melanoma
SNB-19 CNS = tested on: SNB-19 CNS
IGROV1 ovarian = tested on: IGROV1 ovarian
OVCAR-3 ovarian = tested on: OVCAR-3 ovarian
MDA-MB-231 breast = tested on: MDA-MB-231 breast
A549 NSCLC = tested on: A549 NSCLC
HT29 colon = tested on: HT29 colon
HL-60(TB) leukemia = tested on: HL-60(TB) leukemia

## Clc1ccc2c(NCCN3CCN(c4ccnc(N5CCCC5)n4)CC3)ccnc2c1
SF-539 CNS
  GI50: 1.73 µM
  TGI: 3.67 µM
COLO 205 colon
  GI50: 1.63 µM
  TGI: 3.59 µM
SK-MEL-5 melanoma
  GI50: 1.79 µM
  TGI: 3.19 µM
T-47D breast
  GI50: 2.01 µM
  TGI: 5.59 µM
UACC-257 melanoma
  GI50: 2.29 µM
  TGI: 4.35 µM
OVCAR-8 ovarian
  GI50: 4.39 µM
  TGI: 18.5 µM
UACC-62 melanoma
  GI50: 2.13 µM
  TGI: 4.51 µM
NCI-H460 lung
  GI50: 3.25 µM
  TGI: 10.1 µM
EKVX NSCLC
  GI50: 10.2 µM
  TGI: 24.4 µM
NCI-H23 lung
  GI50: 6.88 µM
  TGI: 22.7 µM
SK-MEL-2 melanoma
  GI50: 2.61 µM
  TGI: 6.77 µM
A498 renal
  GI50: 2.39 µM
  TGI: 8.51 µM
DU-145 prostate
  GI50: 5.71 µM
  TGI: 20.3 µM
SW-620 colon
  GI50: 2.05 µM
  TGI: 4.31 µM
HCC-2998 colon
  GI50: 1.94 µM
  TGI: 4.08 µM
MOLT-4 leukemia
  GI50: 3.58 µM
  TGI: 38.2 µM
CCRF-CEM leukemia
  GI50: 3.65 µM
  TGI: 32.3 µM
TK-10 renal
  GI50: 3.9 µM
  TGI: 21.3 µM
MDA-MB-435
  GI50: 1.96 µM
  TGI: 4.54 µM
MALME-3M melanoma
  GI50: 1.91 µM
  TGI: 3.74 µM
NCI-H522 lung
  GI50: 3.27 µM
  TGI: 11.1 µM
MCF7 breast
  GI50: 1.96 µM
  TGI: 8.04 µM
U251 CNS
  GI50: 3.09 µM
  TGI: 10.1 µM
HS 578T breast
  GI50: 3.54 µM
  TGI: 19.8 µM
LOX IMVI melanoma
  GI50: 1.72 µM
  TGI: 3.55 µM
HCT-15 colon
  GI50: 2.1 µM
  TGI: 7.57 µM
K-562 leukemia
  GI50: 1.47 µM
  TGI: 9.76 µM
KM12 colon
  GI50: 4.02 µM
  TGI: 17.4 µM
786-0 renal
  GI50: 3.32 µM
  TGI: 11.1 µM
NCI/ADR-RES ovarian
  GI50: 4.12 µM
  TGI: 18.1 µM
OVCAR-5 ovarian
  GI50: 5.1 µM
  TGI: 21.4 µM
CAKI-1 renal
  GI50: 2.69 µM
  TGI: 10.3 µM
UO-31 renal
  GI50: 1.82 µM
  TGI: 4.47 µM
OVCAR-4 ovarian
  GI50: 3.87 µM
  TGI: 28.2 µM
HCT-116 colon
  GI50: 2.51 µM
  TGI: 10.4 µM
RPMI-8226 leukemia
  GI50: 2.48 µM
  TGI: 7.08 µM
NCI-H226 lung
  GI50: 21.8 µM
  TGI: 41 µM
RXF 393 renal
  GI50: 1.42 µM
  TGI: 3.93 µM
SF-268 CNS
  GI50: 2.73 µM
  TGI: 11.5 µM
SF-295 CNS
  GI50: 2.37 µM
  TGI: 5.44 µM
HOP-62 NSCLC
  GI50: 3.34 µM
  TGI: 16.2 µM
SNB-75 CNS
  GI50: 1.76 µM
  TGI: 7.62 µM
ACHN renal
  GI50: 2.68 µM
  TGI: 8.01 µM
M14 melanoma
  GI50: 1.91 µM
  TGI: 3.61 µM
PC-3 prostate
  GI50: 5.97 µM
  TGI: 20.8 µM
BT-549 breast
  GI50: 5.63 µM
  TGI: 19.4 µM
SK-OV-3 ovarian
  GI50: 11.8 µM
  TGI: 34.2 µM
SN12C renal
  GI50: 4.86 µM
  TGI: 19.1 µM
SK-MEL-28 melanoma
  GI50: 1.77 µM
  TGI: 3.66 µM
SNB-19 CNS
  GI50: 7.06 µM
  TGI: 28.7 µM
IGROV1 ovarian
  GI50: 4.48 µM
  TGI: 23.7 µM
OVCAR-3 ovarian
  GI50: 5.3 µM
  TGI: 21.2 µM
MDA-MB-231 breast
  GI50: 2.06 µM
  TGI: 5.89 µM
A549 NSCLC
  GI50: 4.23 µM
  TGI: 16.8 µM
HT29 colon
  GI50: 1.34 µM
  TGI: 12.2 µM
HL-60(TB) leukemia
  GI50: 2.37 µM
  TGI: 6.25 µM
